The subject of test [1] is carrageenan-induced hyperalgesic foot withdrawal. Kind of test: Rat Carrageenan-induced Analgesia Test. Type of test: in vivo, rat (male Sprague-Dawley). Conditions: oral, @ 30 mg/ka body weight, 3 hours after carrageenan injection. On the procedure:
Rat Carrageenan-induced Analgesia Test
The analgesia test using rat carrageenan was performed with materials, reagents and procedures essentially as described by Hargreaves, et al., (Pain, 32, 77 (1988)). Male Sprague-Dawley rats were treated as previously described for the Carrageenan Foot Pad Edema test. Three hours after the injection of the carrageenan, the rats were placed in a special plexiglass container with a transparent floor having a high intensity lamp as a radiant heat source, positionable under the floor. After an initial twenty minute period, thermal stimulation was begun on either the injected foot or on the contralateral uninjected foot. A photoelectric cell turned off the lamp and timer when light was interrupted by paw withdrawal. The time until the rat withdraws its foot was then measured. The withdrawal latency in seconds was determined for the control and drug-treated groups, and percent inhibition of the hyperalgesic foot withdrawal determined.

For test [2], the target named is T1, Human COX I (Homo sapiens, UniProt P23219).
T1 construct: made in house; host or cells: SF9 insect cells, recombinant baculovirus (transfer vector pVL1393)
T1 sequence (P23219 24-599): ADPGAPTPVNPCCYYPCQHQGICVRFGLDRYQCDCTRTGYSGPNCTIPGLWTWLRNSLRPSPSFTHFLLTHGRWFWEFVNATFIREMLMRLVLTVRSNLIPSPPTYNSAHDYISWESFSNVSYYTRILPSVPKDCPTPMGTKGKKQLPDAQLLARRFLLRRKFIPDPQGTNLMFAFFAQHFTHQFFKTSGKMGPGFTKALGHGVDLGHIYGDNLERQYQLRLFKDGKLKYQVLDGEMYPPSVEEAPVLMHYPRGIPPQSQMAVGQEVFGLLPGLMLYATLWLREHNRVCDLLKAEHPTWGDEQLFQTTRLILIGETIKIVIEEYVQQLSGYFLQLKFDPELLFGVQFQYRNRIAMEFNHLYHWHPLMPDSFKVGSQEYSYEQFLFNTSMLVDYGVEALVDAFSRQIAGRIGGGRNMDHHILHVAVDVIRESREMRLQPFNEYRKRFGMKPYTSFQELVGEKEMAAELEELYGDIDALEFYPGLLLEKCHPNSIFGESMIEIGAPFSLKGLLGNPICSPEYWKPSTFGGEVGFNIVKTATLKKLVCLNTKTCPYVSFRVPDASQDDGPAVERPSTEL
Nature of the test: Evaluation of COX I activity in vitro (recombinant enzyme, PGE2 ELISA). Type of test: biochemical. The note with it: 10 μM arachidonic acid, pre-incubation 10-20 minutes, pH 8.0; read-out: Human COX I ID50. The source says:
(§1) Evaluation of COX I and COX II activity in vitro
(§2) a. Preparation of recombinant COX baculoviruses
(§3) A 2.0 kb fragment containing the coding region of either human or murine COX-I or human or murine COX-II was cloned into a BamH1 site of the baculovirus transfer vector pVL1393 (Invitrogen) to generate the baculovirus transfer vectors for COX-I and COX-II in a manner similar to the method of D. R. O'Reilly et al (Baculovirus Expression Vectors: A Laboratory Manual (1992)). Recombinant baculoviruses were isolated by transfecting 4 μg of baculovirus transfer vector DNA into SF9 insect cells ([…]) along with 200 ng of linearized baculovirus plasmid DNA by the calcium phosphate method. See M. D. Summers and G. E. Smith, A Manual of Methods for Baculovirus Vectors and Insect Cell Culture Procedures, Texas Agric. Exp. Station Bull. 1555 (1987). Recombinant viruses were purified by three rounds of plaque purification and high titer (10E7-10E8 pfu/ml) stocks of virus were prepared. For large scale production, SF9 insect cells were infected in 10 liter fermentors (0.5×10^6 /ml) with the recombinant baculovirus stock such that the multiplicity of infection was 0.1. After 72 hours the cells were centrifuged and the cell pellet homogenized in Tris/Sucrose (50 mM: 25%, pH 8.0) containing 1% 3-[(3-cholamidopropyl)dimethylammonio]-1-propanesulfonate (CHAPS). The homogenate was centrifuged at 10,000'G for 30 minutes, and the resultant supernatant was stored at -80° C. before being assayed for COX activity.
(§4) b. Assay for COX I and COX II activity:
(§5) COX activity was assayed as PGE2 formed/μg protein/time using an ELISA to detect the prostaglandin released. CHAPS-solubilized insect cell membranes containing the appropriate COX enzyme were incubated in a potassium phosphate buffer (50 mM, pH 8.0) containing epinephrine, phenol, and heme with the addition of arachidonic acid (10 μM). Compounds were pre-incubated with the enzyme for 10-20 minutes prior to the addition of arachidonic acid. Any reaction between the arachidonic acid and the enzyme was stopped after ten minutes at 37° C./room temperature by transferring 40 μl of reaction mix into 160 μl ELISA buffer and 25 μM indomethacin. The PGE2 formed was measured by standard ELISA technology (Cayman Chemical).

Test [3] addresses T2, Human COX II (Homo sapiens, UniProt P35354).
T2 construct: made in house; host or cells: SF9 insect cells, recombinant baculovirus (transfer vector pVL1393)
T2 sequence (P35354 18-604): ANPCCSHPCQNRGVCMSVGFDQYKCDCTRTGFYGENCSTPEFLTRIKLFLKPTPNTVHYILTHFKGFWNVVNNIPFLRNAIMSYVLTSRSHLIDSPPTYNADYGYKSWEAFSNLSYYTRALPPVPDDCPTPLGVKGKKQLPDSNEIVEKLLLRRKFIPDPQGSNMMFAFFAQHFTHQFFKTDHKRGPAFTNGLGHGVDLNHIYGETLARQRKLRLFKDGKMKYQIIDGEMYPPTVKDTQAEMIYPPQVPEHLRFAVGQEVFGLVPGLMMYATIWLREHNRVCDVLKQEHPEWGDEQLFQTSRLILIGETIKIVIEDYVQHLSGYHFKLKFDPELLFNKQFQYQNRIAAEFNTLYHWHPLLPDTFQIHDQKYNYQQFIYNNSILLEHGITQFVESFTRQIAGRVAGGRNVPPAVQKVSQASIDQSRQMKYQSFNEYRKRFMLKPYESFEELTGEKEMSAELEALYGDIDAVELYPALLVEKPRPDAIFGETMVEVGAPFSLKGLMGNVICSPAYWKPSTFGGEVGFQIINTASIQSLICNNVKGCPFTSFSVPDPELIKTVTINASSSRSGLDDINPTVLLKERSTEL
Kind of test: Evaluation of COX II activity in vitro (recombinant enzyme, PGE2 ELISA). It is filed as biochemical. Conditions: 10 μM arachidonic acid, pre-incubation 10-20 minutes, pH 8.0; read-out: Human COX II ID50. As for the experimental part: as §1
The COX II inhibition activity of the compounds of this invention illustrated in the Examples was determined by the following methods.
as §2, §3, §4, §5
(In general: In an ELISA, binding on a coated surface is turned into a signal by an enzyme label.)

Test [4] concerns carrageenan foot pad edema (rat paw edema). Kind of test: Rat Carrageenan Foot Pad Edema Test. Type of test: in vivo, rat (male Sprague-Dawley). The note with it: oral, @ 30 mg/ka body weight, 3 hours after carrageenan injection. As for the experimental part:
Rat Carrageenan Foot Pad Edema Test
Male Sprague-Dawley rats were selected in each group so that the average body weight was as close as possible. Rats were fasted with free access to water for over sixteen hours prior to the test. […] One hour later a subplantar injection of 0.1 mL of 1% solution of carrageenan/sterile 0.9% saline was administered and the volume of the injected foot was measured with a displacement plethysmometer connected to a pressure transducer with a digital indicator. Three hours after the injection of the carrageenan, the volume of the foot was again measured.
For orientation: Carrageenan injected into the paw causes an acute inflammation.

For `COc1ccc2c(c1F)CSc1c(C(F)(F)F)nn(-c3ccc(S(C)(=O)=O)cc3)c1-2` [Example 2, 1,5-Dihydro-6-fluoro-7-methoxy-1-[(4-methylsulfonyl)phenyl]-3-(trifluoromethyl)-[2]benzothiopyrano[4,3-c]pyrazole], the “ANALGESIA % Inhibition” value in test [1] amounted to 29%. The IC50 was above 100 µM in test [2] and below 100 nM in test [3].
Regarding `NS(=O)(=O)c1ccc(-n2nc(C(F)(F)F)c3c2-c2cc(Cl)sc2CS3)cc1` [Example 21, 4-[7-Chloro-1,5-dihydro-3-trifluoromethyl-thieno[3',2':4,5]thiopyrano[3,2-c]pyrazol-1-yl]benzenesulfonamide], the IC50 in test [2] is 8.7 µM; in test [3], below 100 nM. Also, in test [4], the “RAT PAW EDEMA % Inhibition” value turned out to be 26%.
In the case of `COc1ccc2c(c1)SCc1c(C(F)(F)F)nn(-c3ccc(S(N)(=O)=O)cc3)c1-2` [Example 13, 4-[1,4-Dihydro-7-methoxy-3-(trifluoromethyl)-[1]benzothiopyrano[4,3-c]pyrazol-1-yl]benzenesulfonamide], the IC50 in test [2] was below 0.1 µM; in test [3], below 100 nM.
For `NC(=O)c1nn(-c2ccc(S(N)(=O)=O)cc2)c2c1SCc1cc(F)ccc1-2` [Example 27, [1-(4-aminosulfonylphenyl)-1,5-dihydro-7-fluoro-[2]benzothiopyrano[4,3-c]pyrazol-3-yl]carboxamide] the same measures were above 100 µM and 4700 nM.
For `NS(=O)(=O)c1ccc(-n2nc(C(F)(F)F)c3c2-c2ccc(F)cc2CS3)cc1` [Example 26, 4-[1,5-dihydro-7-fluoro-3-(trifluoromethyl)-[2]benzothiopyrano[4,3-c]pyrazol-1-yl]benzenesulfonamide] the same measures were 0.3 µM and below 100 nM.
Regarding `NS(=O)(=O)c1ccc(-n2nc(C(F)(F)F)c3c2-c2cc(Cl)sc2C[S+]3[O-])cc1` (centres unmarked) [Example 24, 4-[7-chloro-1,5-dihydro-3-trifluoromethyl-thieno[3',2':4,5]thiopyrano-s-oxide[3,2-c]pyrazol-1-yl]benzenesulfonamide], the IC50 amounted to 91.1 µM in test [2] and 45600 nM in test [3].

(Values after patent US5547975A, “Benzopyranopyrazolyl derivatives for the treatment of inflammation” (priority 1994, dated 1996).)
